{"source": "patent US20030134859A1", "about": "(SANKYO COMPANY, LIMITED, priority 2000, published 2003)", "key": {"Rat white adipocytes": {"tested_on": "Rat white adipocytes", "experiment": "Stimulation of differentiation of the adipocytes (Oil Red O)", "type": "cell-based", "conditions": "100 nM test compound, 5 days, Oil Red O ABS550, control = 100%, blank = 0%, Table 7; for activity at 0.1 µM: Rattus norvegicus, Adipocyte, 120 h, read-out: Rate of Differentiation (%)", "method_in_brief": "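Oil Red O lipid staining, absorbance 550 nm after DMSO extraction, quantified differentiation of rat white adipocytes exposed 5 days to compound (final 100 nM, 0.1% DMSO) in differentiation medium. Percent differentiation normalised between cell-free blank (0%) and DMSO control (100%).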"}, "[1]": {"tested_on": "human colon cancer cells COL-2-JCK", "experiment": "Inhibition of colony forming activity in human colon cancer cells", "type": "cell-based", "conditions": "1 μM test compound, 10 days, sum of colony areas vs control; for inhibition at 1 µM: Homo sapiens, 240 h, read-out: Inhibition Rate (%) against the colony forming activity", "method_in_brief": "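COL-2-JCK cells seeded at 300 cells/well and grown 10 days at 37 °C, 5% CO2 with compound at 1 μM final (0.1% DMSO). Colonies stained with crystal violet in formalin; inhibition % = (1 − treated/control colony area)×100.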"}, "TNF-α production": {"tested_on": "TNF-α production", "experiment": "Inhibitory activity against cytokine (TNF-α) production in LPS-stimulated RAW264.7 cells", "type": "cell-based, mouse", "conditions": "Mus musculus, RAW264.7, 15 h, 1 μM test compound, LPS 10 ng/mL", "method_in_brief": "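Mouse RAW264.7 macrophages (5,000 cells/well) stimulated with 10 ng/mL LPS (final) and treated with test compound at 1 μM final for 15 h at 37 °C. Supernatant mouse TNF-α measured by ELISA; % inhibition = 100−(A−B)/(C−B)×100, using unstimulated and LPS-only controls.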"}}}
{"compound": "O=C(Nc1ccc(-c2ccccc2)cc1)c1cc([N+](=O)[O-])ccc1Cl", "note": "[Example 2, N-(4-Phenylphenyl)-(2-chloro-5-nitrophenyl)carboxamide]", "values": [{"measurement": "activity at 0.1 µM", "setting": "Rat white adipocytes", "value": 127, "unit": "%"}, {"measurement": "inhibition at 1 µM", "setting": "[1]", "value": 8, "unit": "%"}, {"measurement": "inhibition at 1 µM", "setting": "TNF-α production", "value": 24.5, "unit": "%"}]}
{"compound": "Cc1cnc(NC(=O)c2cc([N+](=O)[O-])ccc2Cl)s1", "note": "[Example 4, N-(5-Methylthiazol-2-yl)-(2-chloro-5-nitrophenyl)carboxamide]", "values": [{"measurement": "activity at 0.1 µM", "setting": "Rat white adipocytes", "value": 128, "unit": "%"}, {"measurement": "inhibition at 1 µM", "setting": "[1]", "value": 62, "unit": "%"}, {"measurement": "inhibition at 1 µM", "setting": "TNF-α production", "value": 18.5, "unit": "%"}]}
{"compound": "COc1ccc(NC(=O)c2cc([N+](=O)[O-])ccc2Cl)cc1-c1ccccc1", "note": "[Example 6, N-(4-Methoxy-3-phenyl)phenyl-(2-chloro-5-nitrophenyl)carboxamide]", "values": [{"measurement": "inhibition at 1 µM", "setting": "[1]", "value": 22, "unit": "%"}]}
{"compound": "O=C(Nc1ccccc1-c1ccccc1)c1cc([N+](=O)[O-])ccc1Cl", "note": "[Example 7, N-(2-Phenylphenyl)-(2-chloro-5-nitrophenyl)carboxamide]", "values": [{"measurement": "activity at 0.1 µM", "setting": "Rat white adipocytes", "value": 120, "unit": "%"}, {"measurement": "inhibition at 1 µM", "setting": "[1]", "value": 24, "unit": "%"}]}
{"compound": "CCCCCc1ccc(NC(=O)c2cc([N+](=O)[O-])ccc2Cl)cc1", "note": "[Example 16, N-(4-Pentylphenyl)-(2-chloro-5-nitrophenyl)carboxamide]", "values": [{"measurement": "activity at 0.1 µM", "setting": "Rat white adipocytes", "value": 136, "unit": "%"}, {"measurement": "inhibition at 1 µM", "setting": "[1]", "value": 48, "unit": "%"}, {"measurement": "inhibition at 1 µM", "setting": "TNF-α production", "value": 19, "unit": "%"}]}
{"compound": "N#Cc1ccc(NC(=O)c2cc([N+](=O)[O-])ccc2Cl)cc1", "note": "[Example 20, N-(4-Cyanophenyl)-(2-chloro-5-nitrophenyl)carboxamide]", "values": [{"measurement": "inhibition at 1 µM", "setting": "[1]", "value": 37, "unit": "%"}]}
{"compound": "CC(C)(C)c1cc(NC(=O)c2cc([N+](=O)[O-])ccc2Cl)cc(C(C)(C)C)c1O", "note": "[Example 29, N-(3,5-Di-t-butyl-4-hydroxyphenyl)-(2-chloro-5-nitrophenyl)carboxamide]", "values": [{"measurement": "activity at 0.1 µM", "setting": "Rat white adipocytes", "value": 111, "unit": "%"}, {"measurement": "inhibition at 1 µM", "setting": "[1]", "value": 41, "unit": "%"}, {"measurement": "inhibition at 1 µM", "setting": "TNF-α production", "value": 22.9, "unit": "%"}]}
{"compound": "O=C(Nc1cccc(NS(=O)(=O)c2ccccc2)c1)c1cc([N+](=O)[O-])ccc1Cl", "note": "[Example 30, N-(3-Benzensulfonylaminophenyl)-(2-chloro-5-nitrophenyl)carboxamide]", "values": [{"measurement": "activity at 0.1 µM", "setting": "Rat white adipocytes", "value": 139, "unit": "%"}, {"measurement": "inhibition at 1 µM", "setting": "[1]", "value": 42, "unit": "%"}]}
{"compound": "O=C(Nc1nc(-c2ccccc2)cs1)c1cc([N+](=O)[O-])ccc1Cl", "note": "[Example 35, N-(4-Phenylthiazol-2-yl)-(2-chloro-5-nitrophenyl)carboxamide]", "values": [{"measurement": "activity at 0.1 µM", "setting": "Rat white adipocytes", "value": 122, "unit": "%"}, {"measurement": "inhibition at 1 µM", "setting": "[1]", "value": 15, "unit": "%"}]}
{"compound": "O=C(Nc1nc(-c2cccnc2)cs1)c1cc([N+](=O)[O-])ccc1Cl", "note": "[Example 37, N-[4-(3-Pyridyl)thiazol-2-yl)-(2-chloro-5-nitrophenyl)carboxamide]", "values": [{"measurement": "activity at 0.1 µM", "setting": "Rat white adipocytes", "value": 114, "unit": "%"}, {"measurement": "inhibition at 1 µM", "setting": "[1]", "value": 52, "unit": "%"}, {"measurement": "inhibition at 1 µM", "setting": "TNF-α production", "value": 16, "unit": "%"}]}
{"compound": "O=C(Nc1nc(-c2ccccn2)cs1)c1cc([N+](=O)[O-])ccc1Cl", "note": "[Example 38, N-[4-(2-Pyridyl)thiazol-2-yl)-(2-chloro-5-nitrophenyl)carboxamide]", "values": [{"measurement": "activity at 0.1 µM", "setting": "Rat white adipocytes", "value": 137, "unit": "%"}, {"measurement": "inhibition at 1 µM", "setting": "[1]", "value": 99.9, "unit": "%"}]}
{"compound": "Cc1ccccc1-c1csc(NC(=O)c2cc([N+](=O)[O-])ccc2Cl)n1", "note": "[Example 39, N-[4-(2-Methylphenyl)thiazol-2-yl]-(2-chloro-5-nitrophenyl)carboxamide]", "values": [{"measurement": "inhibition at 1 µM", "setting": "[1]", "value": 48, "unit": "%"}, {"measurement": "inhibition at 1 µM", "setting": "TNF-α production", "value": 29.8, "unit": "%"}]}
{"compound": "Cc1cccc(-c2csc(NC(=O)c3cc([N+](=O)[O-])ccc3Cl)n2)c1", "note": "[Example 40, N-[4-(3-Methylphenyl)thiazol-2-yl)-(2-chloro-5-nitrophenyl)carboxamide]", "values": [{"measurement": "activity at 0.1 µM", "setting": "Rat white adipocytes", "value": 122, "unit": "%"}, {"measurement": "inhibition at 1 µM", "setting": "[1]", "value": 35, "unit": "%"}, {"measurement": "inhibition at 1 µM", "setting": "TNF-α production", "value": 27.1, "unit": "%"}]}
{"compound": "O=C(Nc1nc(-c2cccc3ccccc23)cs1)c1cc([N+](=O)[O-])ccc1Cl", "note": "[Example 41, N-[4-(1-Naphthyl)thiazol-2-yl]-(2-chloro-5-nitrophenyl)carboxamide]", "values": [{"measurement": "activity at 0.1 µM", "setting": "Rat white adipocytes", "value": 118, "unit": "%"}, {"measurement": "inhibition at 1 µM", "setting": "[1]", "value": 55, "unit": "%"}, {"measurement": "inhibition at 1 µM", "setting": "TNF-α production", "value": 30, "unit": "%"}]}
{"compound": "CCc1ccc(-c2csc(NC(=O)c3cc([N+](=O)[O-])ccc3Cl)n2)cc1", "note": "[Example 44, N-[4-(4-Ethylphenyl)thiazol-2-yl]-(2-chloro-5-nitrophenyl)carboxamide]", "values": [{"measurement": "inhibition at 1 µM", "setting": "[1]", "value": 35, "unit": "%"}, {"measurement": "inhibition at 1 µM", "setting": "TNF-α production", "value": 18, "unit": "%"}]}
{"compound": "Cc1nc(NC(=O)c2cc([N+](=O)[O-])ccc2Cl)sc1C", "note": "[Example 47]", "values": [{"measurement": "activity at 0.1 µM", "setting": "Rat white adipocytes", "value": 141, "unit": "%"}, {"measurement": "inhibition at 1 µM", "setting": "[1]", "value": 18, "unit": "%"}, {"measurement": "inhibition at 1 µM", "setting": "TNF-α production", "value": 16.7, "unit": "%"}]}
{"compound": "Cc1cccc(NC(=O)c2cc([N+](=O)[O-])ccc2Cl)n1", "note": "[Example 51, N-(6-Methylpyridin-2-yl)-(2-chloro-5-nitrophenyl)carboxamide]", "values": [{"measurement": "activity at 0.1 µM", "setting": "Rat white adipocytes", "value": 129, "unit": "%"}, {"measurement": "inhibition at 1 µM", "setting": "[1]", "value": 15, "unit": "%"}]}
{"compound": "Cc1ccc(NC(=O)c2cc([N+](=O)[O-])ccc2Cl)nc1", "note": "[Example 52, N-(5-Methylpyridin-2-yl)-(2-chloro-5-nitrophenyl)carboxamide]", "values": [{"measurement": "activity at 0.1 µM", "setting": "Rat white adipocytes", "value": 133, "unit": "%"}, {"measurement": "inhibition at 1 µM", "setting": "[1]", "value": 17, "unit": "%"}, {"measurement": "inhibition at 1 µM", "setting": "TNF-α production", "value": 16.2, "unit": "%"}]}
{"compound": "O=C(Nc1cccc2cccnc12)c1cc([N+](=O)[O-])ccc1Cl", "note": "[Example 57, N-(8-Quinolinyl)-(2-chloro-5-nitrophenyl)carboxamide]", "values": [{"measurement": "inhibition at 1 µM", "setting": "[1]", "value": 5, "unit": "%"}]}
{"compound": "O=C(Nc1ccc(S(=O)(=O)Nc2nccs2)cc1)c1cc([N+](=O)[O-])ccc1Cl", "note": "[Example 96, N-[4-(Thiazol-2-yl)aminosulfonyl]phenyl-(2-chloro-5-nitrophenyl)carboxamide]", "values": [{"measurement": "activity at 0.1 µM", "setting": "Rat white adipocytes", "value": 123, "unit": "%"}, {"measurement": "inhibition at 1 µM", "setting": "[1]", "value": 17, "unit": "%"}]}
{"compound": "Cc1cc(NS(=O)(=O)c2ccc(NC(=O)c3cc([N+](=O)[O-])ccc3Cl)cc2)no1", "note": "[Example 99]", "values": [{"measurement": "Rate of Differentiation (%)", "setting": "Rat white adipocytes", "value": 119.0, "unit": "%"}, {"measurement": "Inhibition Rate (%) against the colony forming activity", "setting": "[1]", "value": 32.0, "unit": "%"}]}
{"compound": "O=C(Nc1ccc(S(=O)(=O)Nc2ccc(Cl)nn2)cc1)c1cc([N+](=O)[O-])ccc1Cl", "note": "[Example 102, N-[4-[(6-Chloropyridazin-3-yl)aminosulfonyl]phenyl]-(2-chloro-5-nitrophenyl)carboxamide]", "values": [{"measurement": "activity at 0.1 µM", "setting": "Rat white adipocytes", "value": 114, "unit": "%"}, {"measurement": "inhibition at 1 µM", "setting": "[1]", "value": 26, "unit": "%"}]}
{"compound": "N-[4-(Pyrrolidinylsulfonyl)phenyl]-(2-chloro-5-nitrophenyl)carboxamide [Example 152]", "values": [{"measurement": "Rate of Differentiation (%)", "setting": "Rat white adipocytes", "value": 112.7, "unit": "%"}, {"measurement": "Inhibition Rate (%) against the colony forming activity", "setting": "[1]", "value": 24.0, "unit": "%"}]}
